# Experimental data from publication PMC6290556, “1,4-Disubstituted Thiosemicarbazide Derivatives are Potent Inhibitors of Toxoplasma gondii Proliferation” (Molecules, 2014).
# Where two headings read alike, the source gives them in different places.
# Tests used:
# [1] = system: T. gondii RH strain tachyzoites; test: [3H]uracil incorporation assay of T. gondii proliferation in L929 host cells; format: cell-based, Toxoplasma gondii; conditions: assay A [3H]uracil incorporation, vs untreated blank
# Procedure: In the next step of our studies, the prepared 1,4-disubstituted thiosemicarbazides (series 1–3) were used to assess the inhibition of T. gondii growth in vitro. For this purpose, intracellular parasites (tachyzoites) of RH strain were incubated with different concentrations of the thiosemicarbazides ranging from 1 to 100 µg/mL. Inhibition of the parasite growth was monitored by measuring the specific incorporation of [^3H]uracil in the parasite’s nucleic acids.
# The tachyzoites of T. gondii strain RH – intraspecies type I (ATCC_ Number 50174™) were maintained through passages on female C57BL/6 (H-2^b) and BALB/c (H-2^d) mice with genetically determined high and low susceptibility (respectively) to T. gondii infection (10–12 weeks old). Tachyzoites washed out from the peritoneum cavity were once expanded in vitro on L929 cells.
# L929, (2 × 10^4 cells/100 µL/well) were grown in complete medium (IMDM) on 96-well plates. After 24 h incubation, a medium was removed and then T. gondii RH tachyzoites, suspended in culture medium supplemented with 1.0, 5.0, 10.0, 50.0 and 100.0 μg/mL 1,4-disubstituted thiosemicarbazides (1g, 2b, 2m, 3d, 3l) and as a control-sulfadiazine, were added (2 × 10^5 tachyzoites/200 µL/well) to the cell monolayers. After subsequent 48 h incubation 1 µCi/well of [^3H] uracil (Moravek Biochemicals Inc., Brea, CA, USA) was applied to each microculture for further 18–20 h. The amount of the isotope incorporated into the parasite nucleic acid pool, corresponding to the parasite growth, was measured by liquid scintillation counting with 1450 Microbeta Plus Liquid Scintillation Counter (Wallac Oy, Turku, Finland).
# [2] = system: Gram-positive bacterial species and clinical isolates of Staphylococcus aureus; set-up: method as in PMID 23428849; conditions: all test microorganisms; cited from earlier work
# L929 cells = test: MTT cell viability assay (ISO 10993-5); format: cell-based, mouse; conditions: L929 cells
# Procedure: (§1) Cell line L929 (ATTC® Catalog No. […] The MTT assay was used according to international standards: ISO 10993-5:2009(E), Biological evaluation of medical devices, Part 5: Tests for in vitro cytotoxicity. […] Then, 1 mg/mL MTT (50 μL/well) was added to each well and incubated at 37 °C, 10% CO2 for 2 h. Mitochondrial dehydrogenases of viable cells reduced the yellowish water-soluble MTT to water-insoluble formazan crystals, which were solubilized with dimethyl sulfoxide (DMSO). The cell culture medium was aspirated cautiously, after which 150 μL DMSO was added to each well and mixed thoroughly. Optical density (OD) was read on the ELISA reader (Multiskan EX, Labsystems, Vienna, VA, USA) at 550 nm. […] All experiments were performed in triplicate.
# [3] = MTT cell viability assay (ISO 10993-5); format: cell-based, mouse; conditions: mouse, 24 h, ± SD
# Procedure: as §1
# [4] = system: T. gondii RH strain tachyzoites; test: [3H]uracil incorporation assay of T. gondii proliferation in L929 host cells; format: cell-based; conditions: Toxoplasma gondii, L929, read-out: IC50 (50% of T. gondii proliferation inhibition in vitro)
# T. gondii RH strain = test: quantitative real-time PCR (B1 gene) of T. gondii in infected L929 cells; format: cell-based, Toxoplasma gondii; conditions: assay B qRT-PCR, L929 host cells
# Procedure: T. gondii genomic DNA was isolated from the tachyzoites of RH strain with Wizard® SV Genomic DNA Purification System (Promega, Madison, WI, USA) according to the manufacturer’s instruction. The DNA concentration and purity were measured using a NanoPhotometer (Implen, München, Germany), while the integrity of the extracted DNA was tested using an ethidium bromide-stained agarose gel. DNA was used for the detection and quantitationof T. gondii in analyzed samples and it was stored at −20 °C until use.
# A quantitative real-time PCR (qRT-PCR) assay, targeting B1 gene was performed to detect and to quantitate T. gondii in analyzed samples (1g, 2b, 2m, 3d, 3l and sulphadiazine) according to the modified protocol of Wahab et al.. […] Amplification was carried out on a 7900HT real-time PCR system (Applied Biosystems, Carlsbad, CA, USA). The reaction mixtures (25 µL) consisted of 1x TaqMan PCR master mix supplemented with ROX (Applied Biosystems), 300 nM probe, 900 nM of each primer and 2 µL of template DNA. For quantification a standard curve was constructed using 10-fold serial dilutions of DNA extracted from a known number of T. gondii. The cycling parameters were: 50 °C for 2 min, initial activation at 95 °C for 10 min, and 45 two-step cycles of 95 °C for 15 s and 60 °C for 1 min. All samples were analyzed in triplicate.
# [5] = target: bacterial topoisomerase IV; set-up: method as in PMID 21080016; conditions: cited from earlier work
# infected cells = system: infected cells; set-up: method as in PMID 20541294; conditions: read-out: LC50 for infected cells; cited from earlier work
# topoisomerase IV = target: T1, topoisomerase IV (Staphylococcus aureus, UniProt P0C1S7+P0C1U9); test: S. aureus topoisomerase IV decatenation assay; format: biochemical
# T1 construct: purchased Inspiralis
# Procedure: The assays were performed using S. aureus topoisomerase IV decatenation kits (Inspiralis). Interlinked kDNA substrate ([…]) was incubated with 1 unit of topoisomerase IV (Inspiralis), in the dedicated decatenation assay buffer supplied by the manufacturer, in the presence of varying concentrations of the compounds tested. Reactions were carried out at 37 °C for 1 h and then terminated by the addition of equal volume of 2× STOP Buffer (40% sucrose, 100 mM Tris-Cl pH 7.5, 1 mM EDTA, 0.5 mg/mL bromophenol blue) and chloroform/isoamyl alcohol. Samples were vortexed, centrifuged and run through a 15 cm 1% agarose gel in TAE buffer for 1.5 h at 80 V. Gels were stained with ethidium bromide and visualized under UV light. The concentrations of the inhibitor that prevented 50% of the kinetoplast DNA from being converted into decatenated minicircles (IC50 values) were determined by plotting the results obtained from the densytometric analyses of the gel images using Quantity One software (BioRad, Hercules, CA, USA).
# [6] = system: Gram-positive and Gram-negative bacterial strains; test: antibacterial assay (disc diffusion / agar dilution); format: cell-based; conditions: even at high concentrations
# Excerpt: The following microorganisms were used in this study: Staphylococcus aureus (ATCC 25923, ATCC 6538, ATCC 29213, NCTC 4163), Staphylococcus epidermidis ATCC 12228, Bacillus subtilis ATCC 6633, Bacillus cereus ATCC 11778, Micrococcus luteus (ATCC 9341, ATCC 10240), Escherichia coli (ATCC 10538, ATCC 25922, NCTC 8196), […] NCTC 4635, Pseudomonas aeruginosa (ATCC 15442, ATCC 27853, NCTC 6749), and Bordetella bronchiseptica ATCC 4617. Initially, antibacterial activity of thiosemicarbazide derivatives was screened on the basis of growth inhibition zone (giz) utilizing the disc diffusion method, according to the Clinical and Laboratory Standards Institute guidelines. For compounds showing the inhibitory effect on the growth of tested bacteria, monitored as an appearance of giz, the minimal inhibitory concentrations (MICs) were determined using agar dilution method, according to the Clinical and Laboratory Standards Institute guidelines. The minimal inhibitory concentrations (MICs) were defined as the lowest concentration of the compound preventing growth of the tested microorganism. In both methods, recommended Mueller-Hinton II agar medium (Becton Dickinson, Heidelberg, Germany) was used. Solutions containing the tested agents were prepared in methanol or DMSO. Ciprofloxacin was used as control antimicrobial agent.
# DNA gyrase = target: T2, DNA gyrase (Staphylococcus aureus, UniProt P0A0K8+P20831); test: S. aureus gyrase supercoiling assay; format: biochemical
# T2 construct: purchased Inspiralis
# Procedure: The assays were performed using S. aureus Gyrase Supercoiling Assay Kits (Inspiralis, Norwich, UK). Briefly, […] pBR322 plasmid DNA ([…]) was incubated with 1 unit of gyrase, in the dedicated supercoiling assay buffer supplied by the manufacturer, in the presence of varying concentrations of the compounds tested. Reactions were carried out at 37 °C for 1 h and then terminated by the addition of equal volume of 2 × STOP Buffer (40% sucrose, 100 mM Tris-Cl pH 7.5, 1 mM EDTA, and 0.5 mg/mL bromophenol blue) and chloroform/isoamyl alcohol. Samples were vortexed, centrifuged and run through a 15 cm 1% agarose gel in TAE buffer (40 mM Trisacetate, 2 mM EDTA) for 3 h at 50 V. Gels were stained with ethidium bromide and visualized under UV light.
# [7] = read-out: viability of L929 cells
# T1 sequence (P0C1U9 whole entry): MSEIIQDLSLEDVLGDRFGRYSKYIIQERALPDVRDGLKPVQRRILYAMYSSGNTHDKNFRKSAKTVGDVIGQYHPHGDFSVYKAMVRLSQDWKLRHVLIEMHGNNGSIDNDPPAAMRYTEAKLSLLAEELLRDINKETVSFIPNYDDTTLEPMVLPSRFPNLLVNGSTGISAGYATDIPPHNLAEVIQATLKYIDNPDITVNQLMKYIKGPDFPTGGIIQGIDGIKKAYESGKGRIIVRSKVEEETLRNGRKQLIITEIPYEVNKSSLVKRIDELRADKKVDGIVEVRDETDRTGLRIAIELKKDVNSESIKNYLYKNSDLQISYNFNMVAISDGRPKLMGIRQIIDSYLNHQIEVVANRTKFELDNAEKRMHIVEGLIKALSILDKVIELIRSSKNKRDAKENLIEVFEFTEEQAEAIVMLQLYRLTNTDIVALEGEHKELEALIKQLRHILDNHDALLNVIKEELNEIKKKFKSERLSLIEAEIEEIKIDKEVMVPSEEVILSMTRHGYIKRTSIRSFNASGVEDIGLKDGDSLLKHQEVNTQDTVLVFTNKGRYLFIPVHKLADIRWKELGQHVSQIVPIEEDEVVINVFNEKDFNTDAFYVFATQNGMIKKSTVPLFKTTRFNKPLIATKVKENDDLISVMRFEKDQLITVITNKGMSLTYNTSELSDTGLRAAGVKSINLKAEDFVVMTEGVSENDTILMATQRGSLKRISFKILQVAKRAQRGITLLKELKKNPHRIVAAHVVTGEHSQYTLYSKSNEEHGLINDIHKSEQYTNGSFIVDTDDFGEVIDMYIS
# T1 sequence (P0C1S7 whole entry): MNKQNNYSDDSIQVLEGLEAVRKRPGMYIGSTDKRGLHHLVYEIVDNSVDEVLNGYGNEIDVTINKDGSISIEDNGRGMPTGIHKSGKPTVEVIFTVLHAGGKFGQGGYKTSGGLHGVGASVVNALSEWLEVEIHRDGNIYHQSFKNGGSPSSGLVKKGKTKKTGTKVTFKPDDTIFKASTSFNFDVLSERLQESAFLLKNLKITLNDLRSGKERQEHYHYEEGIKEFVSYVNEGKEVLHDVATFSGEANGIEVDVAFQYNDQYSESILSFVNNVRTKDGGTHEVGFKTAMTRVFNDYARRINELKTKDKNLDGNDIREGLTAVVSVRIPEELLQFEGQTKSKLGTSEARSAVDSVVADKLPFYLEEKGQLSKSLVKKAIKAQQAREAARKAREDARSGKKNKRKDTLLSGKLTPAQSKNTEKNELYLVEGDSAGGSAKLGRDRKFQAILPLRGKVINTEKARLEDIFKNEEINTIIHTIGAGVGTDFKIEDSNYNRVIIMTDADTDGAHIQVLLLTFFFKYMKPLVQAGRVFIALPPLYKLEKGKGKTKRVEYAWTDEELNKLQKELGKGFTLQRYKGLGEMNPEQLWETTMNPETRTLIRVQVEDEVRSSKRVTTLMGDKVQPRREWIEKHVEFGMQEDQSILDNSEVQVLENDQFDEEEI
# T2 sequence (P0A0K8 whole entry): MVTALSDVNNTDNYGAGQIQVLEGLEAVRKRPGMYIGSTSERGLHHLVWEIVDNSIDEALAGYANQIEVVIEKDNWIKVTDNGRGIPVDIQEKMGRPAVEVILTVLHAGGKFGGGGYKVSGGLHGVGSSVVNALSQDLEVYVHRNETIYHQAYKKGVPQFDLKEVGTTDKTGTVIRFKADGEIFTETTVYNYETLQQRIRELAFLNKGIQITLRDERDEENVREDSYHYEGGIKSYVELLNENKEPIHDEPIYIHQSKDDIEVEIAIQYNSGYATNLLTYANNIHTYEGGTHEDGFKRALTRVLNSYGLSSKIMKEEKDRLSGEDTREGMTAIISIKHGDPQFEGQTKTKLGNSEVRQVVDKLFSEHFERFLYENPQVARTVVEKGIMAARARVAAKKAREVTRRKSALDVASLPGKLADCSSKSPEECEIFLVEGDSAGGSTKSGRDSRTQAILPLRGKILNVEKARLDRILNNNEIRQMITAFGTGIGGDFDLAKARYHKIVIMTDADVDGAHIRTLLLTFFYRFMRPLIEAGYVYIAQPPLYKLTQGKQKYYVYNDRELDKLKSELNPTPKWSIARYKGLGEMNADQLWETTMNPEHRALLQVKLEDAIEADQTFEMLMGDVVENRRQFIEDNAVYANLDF
# T2 sequence (P20831 whole entry): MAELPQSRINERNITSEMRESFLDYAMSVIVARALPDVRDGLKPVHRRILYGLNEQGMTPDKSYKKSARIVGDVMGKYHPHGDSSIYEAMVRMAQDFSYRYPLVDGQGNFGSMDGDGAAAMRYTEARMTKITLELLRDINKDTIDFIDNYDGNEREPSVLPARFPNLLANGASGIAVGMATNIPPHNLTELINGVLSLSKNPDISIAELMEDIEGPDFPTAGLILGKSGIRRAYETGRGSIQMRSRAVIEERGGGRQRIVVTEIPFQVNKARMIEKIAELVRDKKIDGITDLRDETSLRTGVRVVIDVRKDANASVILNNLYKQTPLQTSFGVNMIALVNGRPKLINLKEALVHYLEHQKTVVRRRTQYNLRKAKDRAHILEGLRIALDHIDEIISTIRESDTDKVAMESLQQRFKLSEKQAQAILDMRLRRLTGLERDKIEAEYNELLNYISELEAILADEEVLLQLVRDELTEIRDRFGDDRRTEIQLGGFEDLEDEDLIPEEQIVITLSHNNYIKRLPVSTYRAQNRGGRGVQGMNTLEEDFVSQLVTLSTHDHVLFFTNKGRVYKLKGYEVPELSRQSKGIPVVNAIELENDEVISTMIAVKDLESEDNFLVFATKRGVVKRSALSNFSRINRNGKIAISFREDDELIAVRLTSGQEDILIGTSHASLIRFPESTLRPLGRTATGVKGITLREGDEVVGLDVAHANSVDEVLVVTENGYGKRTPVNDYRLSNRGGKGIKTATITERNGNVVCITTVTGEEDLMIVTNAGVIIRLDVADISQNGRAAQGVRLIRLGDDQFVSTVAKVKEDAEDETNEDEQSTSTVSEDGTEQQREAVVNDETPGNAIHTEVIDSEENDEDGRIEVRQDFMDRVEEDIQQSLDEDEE
smiles,measurement,setting,value
Cc1nnsc1C(=O)NNC(=S)Nc1ccccc1Br [Compound 3d],intensity of T. gondii proliferation,[1]; 1 µg/mL,90.03 ± 14.61%
same,intensity of T. gondii proliferation,[1]; 5 µg/mL,84.64 ± 15.68%
same,intensity of T. gondii proliferation,[1]; 10 µg/mL,83.84 ± 19.01%
same,intensity of T. gondii proliferation,[1]; 50 µg/mL,63.82 ± 5.32 %
same,intensity of T. gondii proliferation,[1]; 100 µg/mL,36.52 ± 5.16 %
same,antibacterial screening,[2],ineffective
same,CC30 (concentration required for 30% proliferation inhibition in vitro),L929 cells,242.56 µg/mL
same,"viability at 24 h, 1 µg/mL",[3]; L929 mouse fibroblast cells,102 ± 3.89%
same,"viability at 24 h, 5 µg/mL",[3]; L929 mouse fibroblast cells,99.14 ± 0.82%
same,"viability at 24 h, 10 µg/mL",[3]; L929 mouse fibroblast cells,97.5 ± 5.98%
same,"viability at 24 h, 50 µg/mL",[3]; L929 mouse fibroblast cells,90.9 ± 6.71%
same,"viability at 24 h, 100 µg/mL",[3]; L929 mouse fibroblast cells,79.5 ± 5.82%
same,"viability at 24 h, 500 µg/mL",[3]; L929 mouse fibroblast cells,41.5 ± 5.16%
same,IC50,[4],74.9 µg/mL
same,intensity of T. gondii proliferation,T. gondii RH strain; 50 µg/mL,75.13 ± 10.10 %
same,intensity of T. gondii proliferation,T. gondii RH strain; 100 µg/mL,25.56 ± 6.32 %
Cc1nnsc1C(=O)NNC(=S)Nc1ccc(F)cc1F [Compound 3l],intensity of T. gondii proliferation,[1]; 1 µg/mL,84.59 ± 16.61%
same,intensity of T. gondii proliferation,[1]; 5 µg/mL,85.76 ± 19.71%
same,intensity of T. gondii proliferation,[1]; 10 µg/mL,103.21 ± 19.27%
same,intensity of T. gondii proliferation,[1]; 50 µg/mL,88.34 ± 14.40 %
same,intensity of T. gondii proliferation,[1]; 100 µg/mL,37.20 ± 7.47 %
same,antibacterial screening,[2],ineffective
same,CC30 (concentration required for 30% proliferation inhibition in vitro),L929 cells,285.52 µg/mL
same,"viability at 24 h, 1 µg/mL",[3]; L929 mouse fibroblast cells,96.54 ± 0.69%
same,"viability at 24 h, 5 µg/mL",[3]; L929 mouse fibroblast cells,92.87 ± 0.23%
same,"viability at 24 h, 10 µg/mL",[3]; L929 mouse fibroblast cells,95.89 ± 0.39%
same,"viability at 24 h, 50 µg/mL",[3]; L929 mouse fibroblast cells,99 ± 10%
same,"viability at 24 h, 100 µg/mL",[3]; L929 mouse fibroblast cells,89.5 ± 3.44%
same,"viability at 24 h, 500 µg/mL",[3]; L929 mouse fibroblast cells,48 ± 10.1%
same,IC50,[4],92.3 µg/mL
same,intensity of T. gondii proliferation,T. gondii RH strain; 50 µg/mL,89.32 ± 15.74 %
same,intensity of T. gondii proliferation,T. gondii RH strain; 100 µg/mL,14.08 ± 3.35 %
O=C(NC(=S)NNC(=O)c1cc2ccccc2[nH]1)c1ccccc1 [4-benzoyl-1-(indol-2-yl)carbonyl-thiosemicarbazide],IC50,[5],14 µg/mL
NC(=O)NO [hydroxyurea],CC50,infected cells,> 10 mM
"Nc1ccc(S(=O)(=O)Nc2ncccn2)cc1 [sulfadiazine, reference compound]",CC50,infected cells,> 10 mM
same,IC50,[4],> 500 µg/mL
same,intensity of T. gondii proliferation,T. gondii RH strain; 100 µg/mL,63.99 ± 10.58 %
Cc1nc[nH]c1C(=O)NNC(=S)NC(=O)c1ccccc1 [4-benzoyl-1-(4-methyl-imidazol-5-yl)carbonylthiosemicarbazide],IC50,[5],90 µg/mL
"O=C(NNC(=S)Nc1ccc(F)cc1)c1cccs1 [Compound 1g, 4-(4-fluorophenyl)-1-(thiophen-2-yl)carbonylthiosemicarbazide]",intensity of T. gondii proliferation,[1]; 1 µg/mL,96.14 ± 14.54%
same,intensity of T. gondii proliferation,[1]; 5 µg/mL,74.94 ± 7.00 %
same,intensity of T. gondii proliferation,[1]; 10 µg/mL,44.71 ± 16.60 %
same,intensity of T. gondii proliferation,[1]; 50 µg/mL,12.62 ± 4.78 %
same,inhibitory effect on topoisomerase IV,topoisomerase IV,No inhibitory effect
same,"viability at 24 h, 1 µg/mL",[3]; [7],103 ± 2.69%
same,"viability at 24 h, 5 µg/mL",[3]; [7],99.5 ± 5.16%
same,"viability at 24 h, 10 µg/mL",[3]; [7],97.3 ± 4.98%
same,"viability at 24 h, 50 µg/mL",[3]; [7],79 ± 2.89%
same,"viability at 24 h, 100 µg/mL",[3]; [7],67 ± 11.4%
same,"viability at 24 h, 500 µg/mL",[3]; [7],39.8 ± 5.83%
same,IC50,[4],33.2 µg/mL
same,intensity of T. gondii proliferation,T. gondii RH strain; 10 µg/mL,61.01 ± 11.23 %
same,intensity of T. gondii proliferation,T. gondii RH strain; 50 µg/mL,5.00 ± 2.56 %
same,growth-inhibiting effect on bacterial strains,[6],no growth-inhibiting effect
same,inhibitory effect on DNA gyrase,DNA gyrase,No inhibitory effect
